Several values for one entry are separate records, joined by “and”; a condition that tells them apart may be missing. Identical values can stand only once.
How the values were obtained:
Set-up in all cases: species or system mouse
[1] = system: de-endothelialized MCA segments of KCNMB1-/- mice permeabilized with β1 constructs; assay: Cerebral artery diameter in vitro, KCNMB1-/- MCA permeabilized with β1 constructs; details: Y32V and W163I substitutions; 50 mM EtOH
Text: Eight-12 week-old C57BL/6J and KCNMB1^−/− on C57BL/6 background mice of both sexes were deeply anesthetized with isoflurane via inhalation in a tightly sealed jar. […] For de-endothelialized records, the endothelium was removed by passing an air bubble into the vessel lumen for 90 s[30]. This method has been consistently used by our group and validated using endothelium-dependent versus endothelium-independent vasodilators[16],[26]. Arteries were cannulated as previously described by our group[26],[40]. […] PSS was continuously bubbled with an O2/CO2/N2 (21/5/74%) gas mixture and maintained at 35–37 °C. The artery external wall diameter was measured using the automatic edge-detection function of lonWizard software (lonOptix) via Sanyo VCB-3512T camera (Sanyo Electric Co.). Arteries were first incubated at an intravascular pressure of 10 mm Hg for 10 min. Then intravascular pressure was increased to 60 mmHg and held steady throughout the experiment to induce myogenic tone development and maintenance[19],[30],[51]. […] To determine arterial viability, arterial contractility was probed with a high KCl solution at the end of each experiment. […] Like PSS, the high-KCl solution was continuously bubbled with O2/CO2/N2 (21/5/74%) gas mixture and maintained at 35–37 °C. […]

MCA branches (C57BL/6J) = assay: EtOH-induced cerebrovascular constriction in vivo (cranial window); details: individual replicates; for artery diameter, normalized to time 0: Fig 8E
Protocol: Eight-12 week-old male and female C57BL/6J mice were anesthetized with a mixture of xylazine/ketamine (12/100 mg per kg) and kept anesthetized for the duration of the experiment with subsequent ketamine doses (50 mg/kg of weight) as needed. A catheter was inserted into the carotid artery so that the infusion went straight to the brain rather than towards the thoracic cavity. An area of the skull was cleared of tissue and thinned to expose the branching arteries originating from the MCA on the side the catheter was inserted, above the zygomatic arch, between the ear and eye of the skull[19],[34]. The exposed arteries branching out from the MCA were monitored using a Leica MC170 HD microscope with a mounted camera (Leica M125 C) connected to a computer monitor. Drugs were diluted to their final concentration in sodium saline (0.9% NaCl) and administered via catheter at 0.1 ml/25 g of weight. Cranial window images before and after drug administration were acquired every 60 seconds for subsequent analysis.

[2] = system: de-endothelialized, pressurized MCA segments (C57BL/6 male); assay: EtOH-induced constriction of pressurized MCA in vitro; details: for change in artery diameter (EtOH-induced constriction): Fig 8B, individual replicates
Text: Eight-12 week-old C57BL/6J and KCNMB1^−/− on C57BL/6 background mice of both sexes were deeply anesthetized with isoflurane via inhalation in a tightly sealed jar. Resistance size MCAs (~100 μm in external diameter) were dissected out of the mouse brains after animal euthanasia with sharp scissors. For de-endothelialized records, the endothelium was removed by passing an air bubble into the vessel lumen for 90 s[30]. This method has been consistently used by our group and validated using endothelium-dependent versus endothelium-independent vasodilators[16],[26]. Arteries were cannulated as previously described by our group[26],[40]. MCAs were cut into 5 to 10 mm-long segments under a microscope (Nikon SMZ645). The segment was cannulated at each end, and the artery exterior was continuously perfused with physiologic sodium saline (PSS) of the following composition (mM): 119 NaCl, 4.7 KCl, 1.2 KH2PO4, 1.6 CaCl2, 1.2 MgSO4, 0.023 EDTA, 11 glucose, 24 NaHCO3, pH=7.4. PSS was continuously bubbled with an O2/CO2/N2 (21/5/74%) gas mixture and maintained at 35–37 °C. The artery external wall diameter was measured using the automatic edge-detection function of lonWizard software (lonOptix) via Sanyo VCB-3512T camera (Sanyo Electric Co.). Arteries were first incubated at an intravascular pressure of 10 mm Hg for 10 min. Then intravascular pressure was increased to 60 mmHg and held steady throughout the experiment to induce myogenic tone development and maintenance[19],[30],[51]. Each artery segment was exposed to PROG, PROG-oxime (in presence and absence of 1 µM paxilline) only once to avoid development of desensitization during repeated applications of PROG-containing solution. To determine arterial viability, arterial contractility was probed with a high KCl solution at the end of each experiment. The high KCl solution was composed of the following composition (mM): 63.7 NaCl, 60 KCl, 1.2 KH2PO4, 1.2 MgSO4, 0.023 EDTA, 11 glucose, 24 NaHCO3, 1.6 CaCl2, pH=7.4. Like PSS, the high-KCl solution was continuously bubbled with O2/CO2/N2 (21/5/74%) gas mixture and maintained at 35–37 °C.

SMILES: CCO [EtOH, ethanol]
- constriction of MCA [1]: constriction was still observed
- artery diameter, normalized to time 0 (MCA branches (C57BL/6J); time 0): 1 (5×) and 0.9973
- artery diameter, normalized to time 0 (MCA branches (C57BL/6J); time 1): 1 (2×) and 0.9893 and 0.9693 and 1.069 and 0.888
- artery diameter, normalized to time 0 (MCA branches (C57BL/6J); time 2): 0.8687 and 0.8304 and 0.7155 and 0.777 and 1.057 and 0.6934
- artery diameter, normalized to time 0 (MCA branches (C57BL/6J); time 3): 0.7831 and 1 and 0.7857 and 0.8444 and 1.014 and 0.8086
- artery diameter, normalized to time 0 (MCA branches (C57BL/6J); time 4): 0.7004 and 0.7657 and 0.7155 and 0.7188 and 0.9449 and 0.6934
- artery diameter, normalized to time 0 (MCA branches (C57BL/6J); time 5): 0.6515 and 0.8304 and 0.7857 and 0.7691 and 0.9335 and 0.8086
- artery diameter, normalized to time 0 (MCA branches (C57BL/6J); time 6): 0.7831 and 1 and 0.8849 and 0.8691 and 0.8118 and 0.8086
- artery diameter, normalized to time 0 (MCA branches (C57BL/6J); time 7): 0.7397 and 0.7657 and 0.8849 and 0.7997 and 0.85 and 0.8086
- artery diameter, normalized to time 0 (MCA branches (C57BL/6J); time 8): 0.7004 and 1 and 0.9584 and 0.8381 and 0.823 and 0.6934
- artery diameter, normalized to time 0 (MCA branches (C57BL/6J); time 9): 0.6515 and 0.9469 and 0.8849 and 0.7942 and 0.8049 and 0.6934
- artery diameter, normalized to time 0 (MCA branches (C57BL/6J); time 10): 0.6515 and 1 and 0.8849 and 0.8075 and 0.8892 and 0.6934
- artery diameter, normalized to time 0 (MCA branches (C57BL/6J); time 11): 0.7831 and 1 and 0.8231 and 0.8249 and 0.8605 and 0.6934
- artery diameter, normalized to time 0 (MCA branches (C57BL/6J); time 12): 0.7004 and 0.9469 and 0.9893 and 0.8811 and 0.8191 and 0.888
- artery diameter, normalized to time 0 (MCA branches (C57BL/6J); time 13): 0.6515 and 0.8304 and 0.8849 and 0.7651 and 0.797 and 0.6934
- artery diameter, normalized (group comparison) (MCA branches (C57BL/6J); Fig 8F): 0.6886 and 0.733 and 0.6331 and 0.6127 and 0.7046 and 0.7541
- EtOH concentration close to EC100 for MCA constriction [2]: ~50 mM
- change in artery diameter (EtOH-induced constriction) ([2]; EtOH 10mM): -3.481 and -2.957 and -4.155 and -5.135 and -0.8602
- change in artery diameter (EtOH-induced constriction) ([2]; EtOH 35mM): -3.0303 and -4.876 and -3.6836 and -8.271 and -6.594
- change in artery diameter (EtOH-induced constriction) ([2]; EtOH 50mM): -6.879 and -7.897 and -7.7 and -14.4262 and -10.9422
- change in artery diameter (EtOH-induced constriction) ([2]; EtOH 75mM): -7.692 and -11.3856 and -9.864 and -10.7879 and -9.705

Reference: PMC10636063, “Progesterone activation of β1-containing BK channels involves two binding sites” (Nature Communications, 2023)
